Measured values reported in ChEMBL document CHEMBL1201861, “Genomics of Drug Sensitity in Cancer screening data, Wellcome Trust Sanger Institute”.
“And” between values parts separate entries of the source, which are not always exact repeats. Equal values may be shown once.

Tests used:
Test in all cases: cells
COR-L105 = type: functional, cell-based, Homo sapiens;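 note: cell growth inhibition determined with a viability assay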
Description: SANGER: Inhibition of human COR-L105 cell growth in a cell viability assay.

Capan-2 = type: functional, cell-based, Homo sapiens;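 note: Capan-2 cell growth inhibition, read out with a viability assay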
Description: SANGER: Inhibition of human Capan-2 cell growth in a cell viability assay.

D-542MG = type: functional, cell-based, Homo sapiens
Description: SANGER: Inhibition of human D-542MG cell growth in a cell viability assay.

DJM-1 = type: functional, cell-based, Homo sapiens;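 note: growth inhibition of human DJM-1 cells, read out by a cell viability assay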
Description: SANGER: Inhibition of human DJM-1 cell growth in a cell viability assay.

DMS-273 = type: functional, cell-based, Homo sapiens
Description: SANGER: Inhibition of human DMS-273 cell growth in a cell viability assay.

EC-GI-10 = type: functional, cell-based, Homo sapiens
Description: SANGER: Inhibition of human EC-GI-10 cell growth in a cell viability assay.

ES6 = type: functional, cell-based, Homo sapiens;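 note: growth inhibition of human ES6 cells, read out with a cell viability assay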
Description: SANGER: Inhibition of human ES6 cell growth in a cell viability assay.

HCC1937 = type: functional, cell-based, Homo sapiens;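 note: growth inhibition measured with a cell viability read-out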
Description: SANGER: Inhibition of human HCC1937 cell growth in a cell viability assay.

HCC70 = type: functional, cell-based, Homo sapiens;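 note: cell viability assay measuring how strongly the compound suppresses proliferation of HCC70 cells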
Description: SANGER: Inhibition of human HCC70 cell growth in a cell viability assay.

HEL = type: functional, cell-based, Homo sapiens;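 note: growth inhibition of HEL cells, read out with a cell viability assay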
Description: SANGER: Inhibition of human HEL cell growth in a cell viability assay.

HMV-2 cell line = type: functional, cell-based, Homo sapiens;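 note: growth inhibition of HMV-II cells, read out with a cell viability assay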
Description: SANGER: Inhibition of human HMV-II cell growth in a cell viability assay.

HN = type: functional, cell-based, Homo sapiens
Description: SANGER: Inhibition of human HN cell growth in a cell viability assay.

HOS = type: functional, cell-based, Homo sapiens;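 note: growth inhibition of human HOS cells, read out with a cell viability assay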
Description: SANGER: Inhibition of human HOS cell growth in a cell viability assay.

Hs-578T = type: functional, cell-based, Homo sapiens
Description: SANGER: Inhibition of human Hs-578-T cell growth in a cell viability assay.

KP-N-YS = type: functional, cell-based; details: Homo sapiens;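 note: cell viability assay measuring inhibition of cell line growth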
Description: SANGER: Inhibition of human KP-N-YS cell growth in a cell viability assay.

KYSE-180 = type: functional, cell-based, Homo sapiens;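 note: growth inhibition of KYSE-180 cells, read out with a cell viability assay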
Description: SANGER: Inhibition of human KYSE-180 cell growth in a cell viability assay.

LAMA-84 = type: functional, cell-based; details: Homo sapiens;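 note: growth inhibition of LAMA-84 cells, read out with a cell viability assay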
Description: SANGER: Inhibition of human LAMA-84 cell growth in a cell viability assay.

LS-411N = type: functional, cell-based, Homo sapiens
MDA-MB-157 = type: functional, cell-based, Homo sapiens
Description: SANGER: Inhibition of human MDA-MB-157 cell growth in a cell viability assay.

MEG-01 = type: functional, cell-based; details: Homo sapiens;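 note: growth inhibition of MEG-01 cells, read out by a cell viability assay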
Description: SANGER: Inhibition of human MEG-01 cell growth in a cell viability assay.

MKN-28 = type: functional, cell-based, Homo sapiens;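 note: cell viability assay read-out, IC50 reflects suppression of growth of human MKN-28 cells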
Description: SANGER: Inhibition of human MKN28 cell growth in a cell viability assay.

MKN-7 = type: functional, cell-based, Homo sapiens;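 note: growth inhibition of MKN-7 cells, read out with a cell viability assay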
Description: SANGER: Inhibition of human MKN7 cell growth in a cell viability assay.

MSTO-211H = type: functional, cell-based, Homo sapiens
Description: SANGER: Inhibition of human MSTO-211H cell growth in a cell viability assay.

MZ1-PC = type: functional, cell-based, Homo sapiens;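 note: cell viability assay measuring growth inhibition of human MZ1-PC cells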
Description: SANGER: Inhibition of human MZ1-PC cell growth in a cell viability assay.

MeWo = type: functional, cell-based, Homo sapiens;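 note: growth inhibition of MeWo cells, determined by a cell viability readout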
Description: SANGER: Inhibition of human Mewo cell growth in a cell viability assay.

NCI-H1299 = type: functional, cell-based, Homo sapiens;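 note: growth inhibition of human NCI-H1299 cells, read out by a cell viability assay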
Description: SANGER: Inhibition of human NCI-H1299 cell growth in a cell viability assay.

NCI-H1355 = type: functional, cell-based, Homo sapiens;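 note: growth inhibition of human NCI-H1355 cells, read out by a cell viability assay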
Description: SANGER: Inhibition of human NCI-H1355 cell growth in a cell viability assay.

NCI-H1651 = type: functional, cell-based, Homo sapiens;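 note: Read-out is a cell viability assay, with IC50 expressing inhibition of NCI-H1651 cell growth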
Description: SANGER: Inhibition of human NCI-H1651 cell growth in a cell viability assay.

NCI-H1793 = type: functional, cell-based, Homo sapiens;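 note: cell growth inhibition, read out by a cell viability assay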
Description: SANGER: Inhibition of human NCI-H1793 cell growth in a cell viability assay.

NCI-H2122 = type: functional, cell-based, Homo sapiens;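 note: growth inhibition of the cells, read out with a cell viability assay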
Description: SANGER: Inhibition of human NCI-H2122 cell growth in a cell viability assay.

OMC-1 = type: functional, cell-based, Homo sapiens;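 note: growth inhibition of the OMC-1 cell line, measured by a cell viability assay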
Description: SANGER: Inhibition of human OMC-1 cell growth in a cell viability assay.

P12-Ichikawa = type: functional, cell-based; details: Homo sapiens
Panc1005 = type: functional, cell-based, Homo sapiens;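 note: growth inhibition of human PANC-10-05 cells, measured by a cell viability assay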
Description: SANGER: Inhibition of human PANC-10-05 cell growth in a cell viability assay.

RCC10RGB = type: functional, cell-based, Homo sapiens;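 note: growth inhibition of human RCC10RGB cells, read out by a cell viability assay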
Description: SANGER: Inhibition of human RCC10RGB cell growth in a cell viability assay.

SF-268 = type: functional, cell-based, Homo sapiens;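 note: growth inhibition of SF-268 cells determined with a cell viability assay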
Description: SANGER: Inhibition of human SF268 cell growth in a cell viability assay.

SK-LMS-1 = type: functional, cell-based, Homo sapiens;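 note: growth inhibition of human SK-LMS-1 cells, read out with a cell viability assay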
Description: SANGER: Inhibition of human SK-LMS-1 cell growth in a cell viability assay.

SK-MEL-30 = type: functional, cell-based; details: Homo sapiens;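 note: growth inhibition of SK-MEL-30 cells, determined with a cell viability assay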
Description: SANGER: Inhibition of human SK-MEL-30 cell growth in a cell viability assay.

SK-MES-1 = type: functional, cell-based, Homo sapiens;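 note: growth inhibition of human SK-MES-1 cells, read out with a cell viability assay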
Description: SANGER: Inhibition of human SK-MES-1 cell growth in a cell viability assay.

SNU-449 = type: functional, cell-based, Homo sapiens
Description: SANGER: Inhibition of human SNU-449 cell growth in a cell viability assay.

SW1088 = type: functional, cell-based, Homo sapiens;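 note: growth inhibition of human SW1088 cells, read out by a cell viability assay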
Description: SANGER: Inhibition of human SW1088 cell growth in a cell viability assay.

647-V = type: functional, cell-based, Homo sapiens;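 note: growth inhibition of 647-V cells, read out with a cell viability assay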
Description: SANGER: Inhibition of human 647-V cell growth in a cell viability assay.

A2058 = type: functional, cell-based; details: Homo sapiens;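 note: reduction of A2058 cell growth, read out with a viability assay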
Description: SANGER: Inhibition of human A2058 cell growth in a cell viability assay.

A-427 = type: functional, cell-based, Homo sapiens;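 note: growth inhibition of human A-427 cells, read out by a cell viability assay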
Description: SANGER: Inhibition of human A427 cell growth in a cell viability assay.

BB65-RCC = type: functional, cell-based, Homo sapiens;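 note: growth inhibition of the cell line, measured with a cell viability assay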
Description: SANGER: Inhibition of human BB65-RCC cell growth in a cell viability assay.

BFTC-905 = type: functional, cell-based, Homo sapiens
Description: SANGER: Inhibition of human BFTC-905 cell growth in a cell viability assay.

UACC-257 = type: functional, cell-based, Homo sapiens
Description: SANGER: Inhibition of human UACC-257 cell growth in a cell viability assay.

VM-CUB-1 = type: functional, cell-based; details: Homo sapiens;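 note: cell viability assay measuring growth inhibition of the human VM-CUB-1 cell line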
Description: SANGER: Inhibition of human VM-CUB-1 cell growth in a cell viability assay.

YAPC = type: functional, cell-based, Homo sapiens;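 note: growth inhibition of YAPC cells, measured with a cell viability assay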
Description: SANGER: Inhibition of human YAPC cell growth in a cell viability assay.

CCRF-CEM = type: functional, cell-based; details: Homo sapiens;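 note: inhibition of CCRF-CEM cell growth, measured by a cell viability assay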
Description: SANGER: Inhibition of human CCRF-CEM cell growth in a cell viability assay.

CHP-212 = type: functional, cell-based, Homo sapiens
Description: SANGER: Inhibition of human CHP-212 cell growth in a cell viability assay.

For `Cc1cc([C@@H](C)Nc2ccccc2C(=O)O)c2nc(N3CCOCC3)cc(=O)n2c1` [AZD-6482], the IC50 (COR-L105; cor-l105) was over 5120 nM, the IC50 (Capan-2; capan-2) was over 5120 nM and the IC50 (D-542MG; d-542mg) was 1850 nM and > 5120 nM. It also gave an IC50 (DJM-1; djm-1) of over 5120 nM, an IC50 (DMS-273; Homo sapiens, DMS-273) of 4830 nM and an IC50 (DMS-273; dms-273) of 2480 nM. For the same compound, the IC50 (EC-GI-10; ec-gi-10) was over 5120 nM, the IC50 (ES6; Homo sapiens, ES6) was over 5120 nM and the IC50 (ES6; es6) was over 5120 nM. For the same compound, the IC50 (HCC1937; hcc1937) was over 5120 nM, the IC50 (HCC70; hcc70) was 1660 nM and > 5120 nM and the IC50 (HEL; hel) was over 5120 nM. The IC50 (HMV-2 cell line; hmv-2) was over 5120 nM, the IC50 (HN; hn) was over 5120 nM and the IC50 (HOS; hos) was over 5120 nM. For the same compound, the IC50 (Hs-578T; hs-578-t) was > 5120 nM and 3500 nM, the IC50 (KP-N-YS) was over 5120 nM and the IC50 (KYSE-180; kyse-180) was over 5120 nM. It also gave an IC50 (LAMA-84) of over 5120 nM, an IC50 (LS-411N; Homo sapiens, LS-411N) of over 5120 nM and an IC50 (LS-411N; ls-411n) of over 5120 nM. The IC50 (MDA-MB-157; mda-mb-157) was over 5120 nM, the IC50 (MEG-01) was over 5120 nM and the IC50 (MKN-28; mkn-28) was over 5120 nM. The IC50 (MKN-7; mkn-7) was over 5120 nM, the IC50 (MSTO-211H; msto-211h) was over 5120 nM and the IC50 (MZ1-PC; mz1-pc) was over 5120 nM. The IC50 (MeWo; mewo) was > 5120 nM and 3170 nM, the IC50 (NCI-H1299; nci-h1299) was 3670 nM and > 5120 nM and the IC50 (NCI-H1355; Homo sapiens, NCI-H1355) was over 5120 nM. The IC50 (NCI-H1355; nci-h1355) was over 5120 nM, the IC50 (NCI-H1651; Homo sapiens, NCI-H1651) was over 5120 nM and the IC50 (NCI-H1651; nci-h1651) was over 5120 nM. For the same compound, the IC50 (NCI-H1793; nci-h1793) was over 5120 nM, the IC50 (NCI-H2122; nci-h2122) was over 5120 nM and the IC50 (OMC-1; omc-1) was over 5120 nM. The IC50 (P12-Ichikawa) was over 5120 nM, the IC50 (Panc1005; panc1005) was 2100 nM and > 5120 nM and the IC50 (RCC10RGB; rcc10rgb) was over 5120 nM. It also gave an IC50 (SF-268; sf-268) of over 5120 nM, an IC50 (SK-LMS-1; Homo sapiens, SK-LMS-1) of 3070 nM and an IC50 (SK-LMS-1; sk-lms-1) of 4620 nM. The IC50 (SK-MEL-30) was over 5120 nM, the IC50 (SK-MES-1; sk-mes-1) was 790 nM and > 5120 nM and the IC50 (SNU-449; Homo sapiens, SNU-449) was over 5120 nM. It also gave an IC50 (SNU-449; snu-449) of over 5120 nM, an IC50 (SW1088; Homo sapiens, SW1088) of 2480 nM and an IC50 (SW1088; sw1088) of 2010 nM. The IC50 (647-V; 647-v) was over 5120 nM, the IC50 (A2058) was over 5120 nM and the IC50 (A-427; a-427) was 995 nM and > 5120 nM. The IC50 (BB65-RCC; Homo sapiens, BB65-RCC) was over 5120 nM, the IC50 (BB65-RCC; bb65-rcc) was over 5120 nM and the IC50 (BFTC-905; bftc-905) was > 5120 nM and 4150 nM. For the same compound, the IC50 (UACC-257; Homo sapiens, UACC-257) was over 5120 nM, the IC50 (UACC-257; uacc-257) was over 5120 nM and the IC50 (VM-CUB-1) was over 5120 nM. It also gave an IC50 (YAPC; yapc) of over 5120 nM, an IC50 (CCRF-CEM) of 3610 nM and an IC50 (CHP-212; chp-212) of over 5120 nM.

For `Nc1ccn([C@@H]2O[C@H](CO)[C@@H](O)[C@@H]2O)c(=O)n1` [CYTARABINE], the IC50 (COR-L105; Homo sapiens, COR-L105) was 160 nM, the IC50 (Capan-2; Homo sapiens, Capan-2) was over 2000 nM and the IC50 (D-542MG; Homo sapiens, D-542MG) was over 2000 nM. For the same compound, the IC50 (DJM-1; Homo sapiens, DJM-1) was over 2000 nM, the IC50 (DMS-273; Homo sapiens, DMS-273) was 1460 nM and the IC50 (EC-GI-10; Homo sapiens, EC-GI-10) was 557 nM. The IC50 (ES6; Homo sapiens, ES6) was 721 nM, the IC50 (HCC1937; Homo sapiens, HCC1937) was over 2000 nM and the IC50 (HCC70; Homo sapiens, HCC70) was over 2000 nM. For the same compound, the IC50 (HEL; Homo sapiens, HEL) was 20.5 nM, the IC50 (HMV-2 cell line; Homo sapiens, HMV-2) was 124 nM and the IC50 (HN; Homo sapiens, HN) was 221 nM. It also gave an IC50 (HOS; Homo sapiens, HOS) of 518 nM, an IC50 (Hs-578T; Homo sapiens, Hs-578T) of 839 nM and an IC50 (KP-N-YS) of over 2000 nM. The IC50 (KYSE-180; Homo sapiens, KYSE-180) was 565 nM, the IC50 (LAMA-84) was 335 nM and the IC50 (LS-411N; Homo sapiens, LS-411N) was 695 nM. The IC50 (MDA-MB-157; Homo sapiens, MDA-MB-157) was 1390 nM, the IC50 (MEG-01) was over 2000 nM and the IC50 (MKN-28; Homo sapiens, MKN-28) was over 2000 nM. For the same compound, the IC50 (MKN-7; Homo sapiens, MKN-7) was over 2000 nM, the IC50 (MSTO-211H; Homo sapiens, MSTO-211H) was 324 nM and the IC50 (MZ1-PC; Homo sapiens, MZ1-PC) was 1800 nM. It also gave an IC50 (MeWo; Homo sapiens, MeWo) of 1240 nM, an IC50 (NCI-H1299; Homo sapiens, NCI-H1299) of 672 nM and an IC50 (NCI-H1355; Homo sapiens, NCI-H1355) of 556 nM. The IC50 (NCI-H1651; Homo sapiens, NCI-H1651) was over 2000 nM, the IC50 (NCI-H1793; Homo sapiens, NCI-H1793) was over 2000 nM and the IC50 (NCI-H2122; Homo sapiens, NCI-H2122) was 430 nM. It also gave an IC50 (OMC-1; Homo sapiens, OMC-1) of 832 nM, an IC50 (P12-Ichikawa) of 5.54 nM and an IC50 (Panc1005; Homo sapiens, Panc1005) of 802 nM. It also gave an IC50 (RCC10RGB; Homo sapiens, RCC10RGB) of over 2000 nM, an IC50 (SF-268; Homo sapiens, SF-268) of 1360 nM and an IC50 (SK-LMS-1; Homo sapiens, SK-LMS-1) of over 2000 nM. For the same compound, the IC50 (SK-MEL-30) was over 2000 nM, the IC50 (SK-MES-1; Homo sapiens, SK-MES-1) was 807 nM and the IC50 (SNU-449; Homo sapiens, SNU-449) was over 2000 nM. It also gave an IC50 (SW1088; Homo sapiens, SW1088) of over 2000 nM, an IC50 (647-V; Homo sapiens, 647-V) of 1230 nM and an IC50 (A2058) of 687 nM. It also gave an IC50 (A-427; Homo sapiens, A-427) of 34.5 nM, an IC50 (BB65-RCC; Homo sapiens, BB65-RCC) of 110 nM and an IC50 (BFTC-905; Homo sapiens, BFTC-905) of 108 nM. The IC50 (UACC-257; Homo sapiens, UACC-257) was over 2000 nM, the IC50 (VM-CUB-1) was 533 nM and the IC50 (YAPC; Homo sapiens, YAPC) was over 2000 nM. The IC50 (CCRF-CEM) was over 2000 nM and the IC50 (CHP-212; Homo sapiens, CHP-212) was 33.5 nM.
